Laboratory results taken from ChEMBL document CHEMBL3352660, “Design, synthesis and pharmacological evaluation of novel polycyclic heteroarene ethers as PDE10A inhibitors: part II” (Bioorg Med Chem Lett, 2014).

Key:
[1] = target: Dual 3',5'-cyclic-AMP and -GMP phosphodiesterase 11A (Homo sapiens) (UniProt Q9HCR9); test: Inhibition of human recombinant PDE11A using [3H]-cAMP as substrate at 10 uM after 30 mins by two-step radiometric assay
[2] = target: T1, cAMP and cAMP-inhibited cGMP 3',5'-cyclic phosphodiesterase 10A (Homo sapiens, UniProt Q9Y233); test: Inhibition of human recombinant GST-tagged PDE10A using [3H]-cAMP as substrate at 1 uM after 30 mins by scintillation proximity assay
T1 sequence (Q9Y233 whole entry): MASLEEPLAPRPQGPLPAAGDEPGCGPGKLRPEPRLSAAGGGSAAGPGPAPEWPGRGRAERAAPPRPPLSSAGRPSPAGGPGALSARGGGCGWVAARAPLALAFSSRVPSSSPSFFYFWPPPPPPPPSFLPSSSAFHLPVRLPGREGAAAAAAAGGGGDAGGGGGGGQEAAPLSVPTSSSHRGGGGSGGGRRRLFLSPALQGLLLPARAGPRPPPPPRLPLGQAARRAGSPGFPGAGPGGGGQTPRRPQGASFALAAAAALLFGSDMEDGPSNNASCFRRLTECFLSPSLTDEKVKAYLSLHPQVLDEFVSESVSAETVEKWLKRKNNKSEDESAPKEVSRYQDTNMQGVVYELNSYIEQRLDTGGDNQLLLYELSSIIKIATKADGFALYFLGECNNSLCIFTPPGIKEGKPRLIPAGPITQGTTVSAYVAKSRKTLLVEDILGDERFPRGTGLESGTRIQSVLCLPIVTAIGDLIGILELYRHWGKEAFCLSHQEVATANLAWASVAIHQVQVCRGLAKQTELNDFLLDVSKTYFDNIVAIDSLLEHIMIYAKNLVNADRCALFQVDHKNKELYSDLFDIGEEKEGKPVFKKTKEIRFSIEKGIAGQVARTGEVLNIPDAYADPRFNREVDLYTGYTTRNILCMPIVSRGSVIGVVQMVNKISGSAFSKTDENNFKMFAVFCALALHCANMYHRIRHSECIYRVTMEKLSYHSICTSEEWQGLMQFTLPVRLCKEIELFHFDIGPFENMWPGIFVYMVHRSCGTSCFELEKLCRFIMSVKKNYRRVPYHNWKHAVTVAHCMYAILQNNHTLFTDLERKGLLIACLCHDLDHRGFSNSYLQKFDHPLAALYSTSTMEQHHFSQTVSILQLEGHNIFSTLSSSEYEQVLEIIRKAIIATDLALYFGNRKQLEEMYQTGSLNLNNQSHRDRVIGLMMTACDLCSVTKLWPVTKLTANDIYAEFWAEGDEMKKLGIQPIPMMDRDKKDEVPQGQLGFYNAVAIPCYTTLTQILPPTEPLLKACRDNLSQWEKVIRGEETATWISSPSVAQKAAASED

[3] = target: 3',5'-cyclic-AMP phosphodiesterase 4D (Homo sapiens) (UniProt Q08499); test: Inhibition of human recombinant PDE4D using [3H]-cAMP as substrate at 10 uM after 30 mins by two-step radiometric assay
Chain of 3',5'-cyclic-AMP phosphodiesterase 4D (Homo sapiens) (Q08499 whole entry): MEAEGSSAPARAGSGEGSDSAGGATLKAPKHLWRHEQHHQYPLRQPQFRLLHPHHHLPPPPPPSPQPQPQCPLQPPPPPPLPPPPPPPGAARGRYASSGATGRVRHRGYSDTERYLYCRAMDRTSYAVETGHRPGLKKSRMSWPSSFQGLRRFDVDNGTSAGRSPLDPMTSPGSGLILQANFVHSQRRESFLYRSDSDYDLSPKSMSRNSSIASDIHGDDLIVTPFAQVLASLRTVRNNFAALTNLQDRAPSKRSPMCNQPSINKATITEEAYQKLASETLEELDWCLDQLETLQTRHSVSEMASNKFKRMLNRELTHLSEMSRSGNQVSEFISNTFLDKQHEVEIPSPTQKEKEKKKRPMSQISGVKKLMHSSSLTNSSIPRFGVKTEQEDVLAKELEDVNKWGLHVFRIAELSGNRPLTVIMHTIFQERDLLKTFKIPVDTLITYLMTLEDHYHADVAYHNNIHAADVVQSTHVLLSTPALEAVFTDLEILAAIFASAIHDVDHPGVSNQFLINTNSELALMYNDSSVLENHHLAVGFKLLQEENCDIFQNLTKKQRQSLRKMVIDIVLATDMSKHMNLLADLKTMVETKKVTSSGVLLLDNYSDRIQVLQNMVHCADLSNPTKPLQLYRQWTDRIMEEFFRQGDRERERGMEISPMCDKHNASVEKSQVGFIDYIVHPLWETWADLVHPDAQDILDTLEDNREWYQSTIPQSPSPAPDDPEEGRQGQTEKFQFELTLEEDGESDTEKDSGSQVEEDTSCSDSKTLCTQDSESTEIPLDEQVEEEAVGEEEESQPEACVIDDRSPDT

[4] = Metabolic stability in cynomolgus monkey liver microsomes incubated for 10 mins prior to NADPH addition measured after 60 mins by LC/MS/MS analysis; type: ADME, Macaca fascicularis; conditions: read-out: Stability
[5] = target: High affinity 3',5'-cyclic-AMP phosphodiesterase 7A (Homo sapiens) (UniProt Q13946); test: Inhibition of human recombinant PDE7A using [3H]-cAMP as substrate at 1 uM after 30 mins by two-step radiometric assay
[6] = Metabolic stability in Wistar rat liver microsomes incubated for 10 mins prior to NADPH addition measured after 60 mins by LC/MS/MS analysis; type: ADME; conditions: read-out: Stability
[7] = target: T2, cAMP and cAMP-inhibited cGMP 3',5'-cyclic phosphodiesterase 10A (Mus musculus, UniProt Q8CA95); test: Inhibition of mouse recombinant GST-tagged PDE10A using [3H]-cAMP as substrate after 30 mins by scintillation proximity assay
T2 sequence (Q8CA95 whole entry): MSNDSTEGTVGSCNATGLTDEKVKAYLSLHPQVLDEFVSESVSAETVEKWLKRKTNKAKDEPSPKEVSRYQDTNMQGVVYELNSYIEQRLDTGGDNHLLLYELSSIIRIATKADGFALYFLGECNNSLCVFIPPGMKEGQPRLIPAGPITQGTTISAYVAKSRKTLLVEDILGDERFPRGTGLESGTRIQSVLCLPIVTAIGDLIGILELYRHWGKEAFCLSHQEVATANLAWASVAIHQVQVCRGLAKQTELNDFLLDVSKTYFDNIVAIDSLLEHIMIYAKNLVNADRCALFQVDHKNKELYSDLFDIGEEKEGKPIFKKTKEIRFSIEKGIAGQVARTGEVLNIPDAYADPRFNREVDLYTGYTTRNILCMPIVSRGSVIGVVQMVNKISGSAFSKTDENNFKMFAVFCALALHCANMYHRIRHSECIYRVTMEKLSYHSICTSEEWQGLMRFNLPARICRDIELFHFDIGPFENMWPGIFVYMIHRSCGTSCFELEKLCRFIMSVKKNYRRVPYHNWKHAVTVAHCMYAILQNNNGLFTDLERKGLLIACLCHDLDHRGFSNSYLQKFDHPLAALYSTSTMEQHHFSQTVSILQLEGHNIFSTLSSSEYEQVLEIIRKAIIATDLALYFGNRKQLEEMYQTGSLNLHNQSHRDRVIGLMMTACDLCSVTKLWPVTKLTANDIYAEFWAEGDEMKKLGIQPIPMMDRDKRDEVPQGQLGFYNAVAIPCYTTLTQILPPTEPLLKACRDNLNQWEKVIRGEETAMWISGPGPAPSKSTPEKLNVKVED

[8] = target: 3',5'-cyclic-AMP phosphodiesterase 4D (Homo sapiens) (UniProt Q08499); test: Inhibition of human recombinant PDE4D using [3H]-cAMP as substrate at 1 uM after 30 mins by two-step radiometric assay
[9] = target: cGMP-inhibited 3',5'-cyclic phosphodiesterase 3A (Homo sapiens) (UniProt Q14432); test: Inhibition of human recombinant PDE3A using cAMP as substrate at 10 uM after 30 mins by HTRF method
Chain of cGMP-inhibited 3',5'-cyclic phosphodiesterase 3A (Homo sapiens) (Q14432 whole entry): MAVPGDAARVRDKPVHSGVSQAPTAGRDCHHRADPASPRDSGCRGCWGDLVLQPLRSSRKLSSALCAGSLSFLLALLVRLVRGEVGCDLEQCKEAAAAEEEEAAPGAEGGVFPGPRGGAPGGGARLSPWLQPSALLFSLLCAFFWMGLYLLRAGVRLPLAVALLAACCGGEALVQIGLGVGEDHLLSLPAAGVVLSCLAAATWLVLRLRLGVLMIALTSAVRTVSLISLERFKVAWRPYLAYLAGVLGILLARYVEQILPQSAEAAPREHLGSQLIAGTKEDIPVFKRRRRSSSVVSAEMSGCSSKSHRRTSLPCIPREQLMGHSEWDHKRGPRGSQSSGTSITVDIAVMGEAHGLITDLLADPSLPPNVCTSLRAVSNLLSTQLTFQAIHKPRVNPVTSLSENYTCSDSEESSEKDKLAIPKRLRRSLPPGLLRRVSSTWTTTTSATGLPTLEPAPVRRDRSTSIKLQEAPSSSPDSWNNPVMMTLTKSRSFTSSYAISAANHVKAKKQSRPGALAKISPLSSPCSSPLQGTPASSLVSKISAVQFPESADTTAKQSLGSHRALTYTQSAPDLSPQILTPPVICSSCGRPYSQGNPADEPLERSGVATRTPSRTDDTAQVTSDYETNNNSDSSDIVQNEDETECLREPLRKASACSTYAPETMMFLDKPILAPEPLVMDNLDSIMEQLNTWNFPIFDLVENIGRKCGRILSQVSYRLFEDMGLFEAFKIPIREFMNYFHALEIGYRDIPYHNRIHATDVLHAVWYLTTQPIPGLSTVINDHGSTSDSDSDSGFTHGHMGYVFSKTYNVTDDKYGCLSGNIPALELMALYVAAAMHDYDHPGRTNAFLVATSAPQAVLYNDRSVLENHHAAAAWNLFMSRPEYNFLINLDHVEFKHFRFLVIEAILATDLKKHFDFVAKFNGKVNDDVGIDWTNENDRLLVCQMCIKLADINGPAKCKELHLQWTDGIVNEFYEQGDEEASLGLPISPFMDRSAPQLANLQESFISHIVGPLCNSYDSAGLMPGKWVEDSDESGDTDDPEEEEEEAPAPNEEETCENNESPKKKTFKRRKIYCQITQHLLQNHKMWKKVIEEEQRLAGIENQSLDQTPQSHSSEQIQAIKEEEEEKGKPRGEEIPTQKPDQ

[10] = target: cGMP-dependent 3',5'-cyclic phosphodiesterase (Homo sapiens) (UniProt O00408); test: Inhibition of human recombinant PDE2A using cAMP as substrate at 1 uM after 30 mins by HTRF method
Chain of cGMP-dependent 3',5'-cyclic phosphodiesterase (Homo sapiens) (O00408 whole entry): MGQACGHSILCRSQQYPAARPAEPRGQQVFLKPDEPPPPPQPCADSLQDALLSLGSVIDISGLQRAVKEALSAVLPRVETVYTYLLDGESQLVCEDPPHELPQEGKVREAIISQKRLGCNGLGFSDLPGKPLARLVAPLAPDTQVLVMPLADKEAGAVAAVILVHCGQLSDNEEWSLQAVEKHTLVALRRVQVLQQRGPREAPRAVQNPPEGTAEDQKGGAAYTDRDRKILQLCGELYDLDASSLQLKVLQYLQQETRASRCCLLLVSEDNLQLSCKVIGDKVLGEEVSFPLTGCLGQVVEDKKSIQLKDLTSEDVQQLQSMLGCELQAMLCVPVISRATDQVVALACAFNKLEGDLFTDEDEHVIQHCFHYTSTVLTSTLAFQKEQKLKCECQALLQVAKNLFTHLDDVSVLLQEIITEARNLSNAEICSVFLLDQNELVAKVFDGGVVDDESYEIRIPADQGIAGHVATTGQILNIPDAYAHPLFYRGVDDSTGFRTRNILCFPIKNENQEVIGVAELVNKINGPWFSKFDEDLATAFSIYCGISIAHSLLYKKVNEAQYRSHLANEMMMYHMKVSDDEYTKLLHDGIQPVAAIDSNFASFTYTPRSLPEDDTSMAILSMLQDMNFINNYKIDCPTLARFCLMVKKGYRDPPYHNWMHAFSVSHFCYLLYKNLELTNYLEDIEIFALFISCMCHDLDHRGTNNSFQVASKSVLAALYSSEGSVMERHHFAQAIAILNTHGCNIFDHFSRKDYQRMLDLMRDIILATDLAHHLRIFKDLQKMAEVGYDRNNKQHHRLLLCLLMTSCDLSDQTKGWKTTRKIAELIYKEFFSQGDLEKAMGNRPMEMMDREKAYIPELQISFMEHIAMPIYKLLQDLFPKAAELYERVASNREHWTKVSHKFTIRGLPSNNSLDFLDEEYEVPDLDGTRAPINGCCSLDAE

[11] = Metabolic stability in CD1 mouse liver microsomes incubated for 10 mins prior to NADPH addition measured after 60 mins by LC/MS/MS analysis; type: ADME; conditions: read-out: Stability
[12] = Metabolic stability in human liver microsomes incubated for 10 mins prior to NADPH addition measured after 60 mins by LC/MS/MS analysis; type: ADME; conditions: read-out: Stability
[13] = target: T1, cAMP and cAMP-inhibited cGMP 3',5'-cyclic phosphodiesterase 10A; test: Inhibition of human recombinant GST-tagged PDE10A using [3H]-cAMP as substrate after 30 mins by scintillation proximity assay
[14] = target: cGMP-specific 3',5'-cyclic phosphodiesterase (Homo sapiens) (UniProt O76074); test: Inhibition of human recombinant PDE5A using […] as substrate at 1 uM after 30 mins by scintillation proximity assay
[15] = target: cGMP-dependent 3',5'-cyclic phosphodiesterase (Homo sapiens) (UniProt O00408); test: Inhibition of human recombinant PDE2A using cAMP as substrate at 10 uM after 30 mins by HTRF method
[16] = target: cGMP-inhibited 3',5'-cyclic phosphodiesterase 3A (Homo sapiens) (UniProt Q14432); test: Inhibition of human recombinant PDE3A using cAMP as substrate at 1 uM after 30 mins by HTRF method
[17] = target: T3, cAMP and cAMP-inhibited cGMP 3',5'-cyclic phosphodiesterase 10A (Rattus norvegicus, UniProt Q9QYJ6); test: Inhibition of rat recombinant GST-tagged PDE10A using [3H]-cAMP as substrate by scintillation proximity assay
T3 sequence (Q9QYJ6 whole entry): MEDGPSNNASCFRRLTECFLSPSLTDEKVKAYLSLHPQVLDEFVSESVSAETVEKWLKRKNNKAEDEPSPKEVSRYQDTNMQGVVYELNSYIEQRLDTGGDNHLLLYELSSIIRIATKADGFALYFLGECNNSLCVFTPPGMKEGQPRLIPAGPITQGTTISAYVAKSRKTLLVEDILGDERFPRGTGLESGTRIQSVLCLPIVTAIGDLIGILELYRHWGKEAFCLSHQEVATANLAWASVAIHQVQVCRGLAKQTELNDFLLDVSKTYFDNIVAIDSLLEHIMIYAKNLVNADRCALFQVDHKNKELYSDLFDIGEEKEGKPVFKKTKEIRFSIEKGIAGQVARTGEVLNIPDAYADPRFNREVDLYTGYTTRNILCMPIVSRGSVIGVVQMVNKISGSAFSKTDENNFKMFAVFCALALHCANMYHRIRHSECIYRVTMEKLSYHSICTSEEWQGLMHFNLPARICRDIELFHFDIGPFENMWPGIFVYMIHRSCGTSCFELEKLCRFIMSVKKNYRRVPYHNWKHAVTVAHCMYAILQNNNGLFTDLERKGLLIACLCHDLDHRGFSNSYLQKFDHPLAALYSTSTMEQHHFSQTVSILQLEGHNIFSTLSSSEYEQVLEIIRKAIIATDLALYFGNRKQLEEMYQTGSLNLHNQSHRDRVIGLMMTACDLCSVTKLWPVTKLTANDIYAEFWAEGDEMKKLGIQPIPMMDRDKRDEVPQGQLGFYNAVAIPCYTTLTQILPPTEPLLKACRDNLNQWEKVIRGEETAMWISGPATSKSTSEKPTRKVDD

[18] = target: High affinity 3',5'-cyclic-AMP phosphodiesterase 7A (Homo sapiens) (UniProt Q13946); test: Inhibition of human recombinant PDE7A using [3H]-cAMP as substrate at 10 uM after 30 mins by two-step radiometric assay
[19] = target: cGMP-specific 3',5'-cyclic phosphodiesterase (Homo sapiens) (UniProt O76074); test: Inhibition of human recombinant PDE5A using […] as substrate at 10 uM after 30 mins by scintillation proximity assay
[20] = target: Dual 3',5'-cyclic-AMP and -GMP phosphodiesterase 11A (Homo sapiens) (UniProt Q9HCR9); test: Inhibition of human recombinant PDE11A using [3H]-cAMP as substrate at 1 uM after 30 mins by two-step radiometric assay
[21] = Metabolic stability in Beagle dog liver microsomes incubated for 10 mins prior to NADPH addition measured after 60 mins by LC/MS/MS analysis; type: ADME, Canis lupus familiaris; conditions: read-out: Stability
Rattus norvegicus [22] = test: Antipsychotic activity in Sprague-Dawley rat prepulse inhibition deficit model assessed as reversal of MK-801-induced effect at 1 mg/kg, ip administered 20 mins prior to MK-801 challenge relative to vehicle-treated control; type: functional; design: scale not given: the % may be the effect or the level left; conditions: route intraperitoneal
Rattus norvegicus [23] = test: Antipsychotic activity in Sprague-Dawley rat […] assessed as reversal of MK-801-induced ataxia at 3 mg/kg, ip administered 2 hrs prior to MK-801 challenge measured every 5 mins for 1 hr starting 15 mins post MK-801 injection relative to vehicle-treated control; type: functional; conditions: route intraperitoneal
Rattus norvegicus [24] = test: Antipsychotic activity in Sprague-Dawley rat […] assessed as reversal of MK-801-induced locomotion at 3 mg/kg, ip administered 2 hrs prior to MK-801 challenge measured every 5 mins for 1 hr starting 15 mins post MK-801 injection relative to vehicle-treated control; type: functional; conditions: route intraperitoneal
Rattus norvegicus [25] = test: Antipsychotic activity in Sprague-Dawley rat […] assessed as reversal of MK-801-induced stereotypy at 3 mg/kg, ip administered 2 hrs prior to MK-801 challenge measured every 5 mins for 1 hr starting 15 mins post MK-801 injection relative to vehicle-treated control; type: functional; conditions: route intraperitoneal
Rattus norvegicus [26] = test: Antipsychotic activity in Sprague-Dawley rat conditioned avoidance response model assessed as avoidance of shock at 3 mg/kg, ip measured after 30 mins relative to vehicle-treated control; type: functional; conditions: route intraperitoneal

Chain of Dual 3',5'-cyclic-AMP and -GMP phosphodiesterase 11A (Homo sapiens) (Q9HCR9 whole entry, looked up): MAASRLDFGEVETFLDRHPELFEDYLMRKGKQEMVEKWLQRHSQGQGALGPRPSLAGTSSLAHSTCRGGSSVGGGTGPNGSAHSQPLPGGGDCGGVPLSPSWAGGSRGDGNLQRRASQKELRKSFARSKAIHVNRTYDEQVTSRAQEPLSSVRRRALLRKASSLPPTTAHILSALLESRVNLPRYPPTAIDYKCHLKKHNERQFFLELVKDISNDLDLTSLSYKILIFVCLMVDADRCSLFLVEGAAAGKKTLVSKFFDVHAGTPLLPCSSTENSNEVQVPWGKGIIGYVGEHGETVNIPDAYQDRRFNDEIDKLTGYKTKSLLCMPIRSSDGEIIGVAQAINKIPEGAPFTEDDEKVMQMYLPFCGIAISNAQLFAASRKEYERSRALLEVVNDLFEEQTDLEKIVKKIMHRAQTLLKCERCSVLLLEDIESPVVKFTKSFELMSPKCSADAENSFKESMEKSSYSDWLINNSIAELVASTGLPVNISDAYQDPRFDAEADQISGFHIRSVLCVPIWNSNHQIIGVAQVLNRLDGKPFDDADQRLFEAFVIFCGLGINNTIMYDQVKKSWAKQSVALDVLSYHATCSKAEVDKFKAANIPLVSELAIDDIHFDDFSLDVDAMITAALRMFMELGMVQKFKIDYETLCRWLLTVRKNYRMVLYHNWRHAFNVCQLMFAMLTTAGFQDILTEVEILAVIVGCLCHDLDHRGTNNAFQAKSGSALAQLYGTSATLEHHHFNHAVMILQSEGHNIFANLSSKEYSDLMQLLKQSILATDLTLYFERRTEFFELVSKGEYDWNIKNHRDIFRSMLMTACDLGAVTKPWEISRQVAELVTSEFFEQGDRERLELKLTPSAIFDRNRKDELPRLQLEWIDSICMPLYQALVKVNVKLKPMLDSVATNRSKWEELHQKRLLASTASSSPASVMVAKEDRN

Compound	inhibition [1] [%]	inhibition [2] [%]	inhibition [3] [%]	remaining at 1 h [4] [%]	inhibition [5] [%]	remaining at 1 h [6] [%]	IC50 [7] [nM]	inhibition [8] [%]	inhibition [9] [%]	inhibition [10] [%]	remaining at 1 h [11] [%]	remaining at 1 h [12] [%]	IC50 [13] [nM]	inhibition [14] [%]	inhibition [15] [%]	inhibition [16] [%]	IC50 [17] [nM]	inhibition [18] [%]	inhibition [19] [%]	inhibition [20] [%]	further results
Cc1nc2n(c(=O)c1CCN1CCC(c3noc4cc(F)ccc34)CC1)CCCC2 [RISPERIDONE]																					Activity (Rattus norvegicus [22]): 67%
Cn1cc(-c2ccncc2)c(-c2ccc(OCc3ccc4ccccc4n3)cc2)n1 [MARDEPODECT]																					Activity (Rattus norvegicus [23]): 18%; Activity (Rattus norvegicus [24]): 80%; Activity (Rattus norvegicus [25]): 32%; Activity (Rattus norvegicus [26]): 96%
Cn1cc(-c2ccc(Oc3ncccc3-c3ccncc3)cc2)c2ncc(Cl)cc21	3	95.4	6.9	54.5	10.5	64	6.7	3.5	0	12.3	67.1	80.9	2.6	2.4	12.6	0	7.1	17.5	3.1	8.5	remaining at 1 h [21]: 54.7%

Now from value to compound, other results behind:

inhibition [1] [%]	inhibition [2] [%]	inhibition [3] [%]	remaining at 1 h [4] [%]	inhibition [5] [%]	remaining at 1 h [6] [%]	IC50 [7] [nM]	inhibition [8] [%]	inhibition [9] [%]	inhibition [10] [%]	remaining at 1 h [11] [%]	remaining at 1 h [12] [%]	IC50 [13] [nM]	inhibition [14] [%]	inhibition [15] [%]	inhibition [16] [%]	IC50 [17] [nM]	inhibition [18] [%]	inhibition [19] [%]	inhibition [20] [%]	Compound	further results
8.3	98.3	10.8	13.7	3.7	46.2	1.2	0	6.4	24.9	48.1	62.5	0.3	9.6	43	0.9	0.8	28.3	16.7	0.1	Cc1cnc2c(-c3ccc(Oc4ncccc4-c4ccncc4)cc3)cn(C)c2c1	remaining at 1 h [21]: 32.3%
6.8	97.2	7.6	71	4	75	22.6	0	2.5	5.3	75.1	96	8.54	9.4	34.1	0.8	29.4	15.8	19.3	0.8	Cn1cc(-c2ccc(Oc3nccnc3-c3ccncc3)cc2)c2nc3ccccc3cc21	remaining at 1 h [21]: 92%
29	98	18	39.8	5	38.4	4.1	0.9	7.4	16.6	40.2	59.6	1.3	2.2	69.6	0.1	5.8	39.9	23.2	3	Cn1cc(-c2ccc(Oc3ncccc3-c3ccncc3)cc2)c2ncccc21	remaining at 1 h [21]: 39.7%
